This is an account of results in US20250115598A1 (Anaxis Pharma Pty Ltd, priority 2021, published 2025).

Molecules are shown by their SMILES.

The target in one assay is human MLKL (full length) (Homo sapiens (Human), UniProt Q8NB16). The experiment in a line: KINOMEscan binding assay, human MLKL (full length). The following applies: KINOMEscan, Table 21; read-out: Human MLKL (full-length) (KD). The method, boiled down:
(§1)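 Assay principle: test compound competes with immobilized bead ligand for kinase; kinase retained, then eluted, is counted by qPCR. Conditions were 1% DMSO final with 11 compound concentrations in 3-fold steps, 30,000 nM top for most. The Hill equation with slope −1 gave Kd.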

The target of the next assay is human RIPK1 (Homo sapiens (Human), UniProt Q13546). Put plainly: KINOMEscan binding assay, human RIPK1. The following applies: Table 21. In outline: as §1
human RIPK1, sequence (Q13546 whole entry): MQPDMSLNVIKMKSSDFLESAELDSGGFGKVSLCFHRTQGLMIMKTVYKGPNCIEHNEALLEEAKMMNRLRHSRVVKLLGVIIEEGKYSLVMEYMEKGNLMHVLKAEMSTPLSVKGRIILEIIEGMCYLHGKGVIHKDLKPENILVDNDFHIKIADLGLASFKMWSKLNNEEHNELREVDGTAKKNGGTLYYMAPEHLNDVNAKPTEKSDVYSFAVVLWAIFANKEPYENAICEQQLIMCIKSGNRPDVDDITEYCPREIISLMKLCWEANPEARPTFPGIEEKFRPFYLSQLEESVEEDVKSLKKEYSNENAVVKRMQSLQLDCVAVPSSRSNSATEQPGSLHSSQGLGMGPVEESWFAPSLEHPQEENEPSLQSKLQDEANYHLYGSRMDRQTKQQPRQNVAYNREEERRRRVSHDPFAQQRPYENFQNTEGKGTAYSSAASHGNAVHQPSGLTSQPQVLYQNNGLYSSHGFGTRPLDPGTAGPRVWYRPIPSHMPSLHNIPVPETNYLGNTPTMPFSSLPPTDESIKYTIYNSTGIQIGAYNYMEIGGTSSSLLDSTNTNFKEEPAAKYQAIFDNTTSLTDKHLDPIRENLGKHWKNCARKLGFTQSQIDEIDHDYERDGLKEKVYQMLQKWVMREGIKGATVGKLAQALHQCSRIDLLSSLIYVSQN
Another assay addresses human RIPK3 (Homo sapiens (Human), UniProt Q9Y572). Put plainly: KINOMEscan binding assay, human RIPK3. The note with it: Table 21. The method, boiled down:
as §1

human RIPK3, sequence (Q9Y572 whole entry): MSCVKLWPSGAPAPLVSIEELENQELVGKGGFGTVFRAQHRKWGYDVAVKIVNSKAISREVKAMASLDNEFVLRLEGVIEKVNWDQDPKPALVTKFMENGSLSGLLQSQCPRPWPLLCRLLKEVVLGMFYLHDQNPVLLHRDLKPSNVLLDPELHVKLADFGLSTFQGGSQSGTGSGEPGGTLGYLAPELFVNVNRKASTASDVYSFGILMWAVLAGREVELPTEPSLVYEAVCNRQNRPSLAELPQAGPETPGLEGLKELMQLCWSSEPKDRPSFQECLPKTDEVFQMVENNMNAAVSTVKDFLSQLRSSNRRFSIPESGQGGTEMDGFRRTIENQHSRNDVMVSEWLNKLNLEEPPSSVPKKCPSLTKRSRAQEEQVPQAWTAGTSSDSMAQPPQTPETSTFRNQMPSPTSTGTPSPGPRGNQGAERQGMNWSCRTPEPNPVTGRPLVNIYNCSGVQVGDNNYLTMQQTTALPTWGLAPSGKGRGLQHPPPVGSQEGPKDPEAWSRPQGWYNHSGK
human MLKL (full length), sequence (Q8NB16 whole entry): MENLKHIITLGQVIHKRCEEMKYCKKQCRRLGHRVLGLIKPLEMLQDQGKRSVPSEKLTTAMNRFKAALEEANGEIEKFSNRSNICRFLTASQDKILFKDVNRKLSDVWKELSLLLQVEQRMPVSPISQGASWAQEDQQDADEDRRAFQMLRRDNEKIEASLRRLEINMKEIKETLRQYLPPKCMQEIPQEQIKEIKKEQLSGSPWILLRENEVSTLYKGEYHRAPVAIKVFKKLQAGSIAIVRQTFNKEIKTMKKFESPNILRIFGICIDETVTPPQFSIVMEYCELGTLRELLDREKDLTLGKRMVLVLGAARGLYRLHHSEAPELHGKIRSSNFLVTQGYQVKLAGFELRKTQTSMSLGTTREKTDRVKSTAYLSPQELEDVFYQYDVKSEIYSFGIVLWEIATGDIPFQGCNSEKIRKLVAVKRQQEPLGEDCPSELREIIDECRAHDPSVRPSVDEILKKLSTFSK

A word on the Kd: it is the equilibrium constant for the complex coming apart. `C[C@H](Oc1cc(-c2nn(C)c3c(-c4cnn(C5(CC#N)COC5)c4)cnc(N)c23)ccc1NS(=O)(=O)C(F)F)c1ccc(F)cc1` [Compound 98, (S)-N-(4-(4-amino-7-(1-(3-(cyanomethyl)oxetan-3-yl)-1H-pyrazol-4-yl)-1-methyl-1H-pyrazolo[4,3-c]pyridin-3-yl)-2-(1-(4-fluorophenyl)ethoxy)phenyl)-1,1-difluoromethanesulfonamide]: the dissociation constant (Kd) was under 0.001 µM at human MLKL (full length), over 10 µM on human RIPK1 and over 10 µM on human RIPK3.

As to `C[C@H](Oc1cc(-c2ccnc3[nH]nc(N)c23)ccc1NS(=O)(=O)C(F)F)c1ccc(F)cc1` [Compound 72, N-(4-(3-Amino-1H-pyrazolo[3,4-b]pyridin-4-yl)-2-((1 S)-1-(4-fluorophenyl)ethoxy)phenyl)-1,1-difluoromethanesulfonamide], the equilibrium dissociation constant (Kd) was under 0.001 µM at human MLKL (full length), over 10 µM on human RIPK1 and over 10 µM on human RIPK3.

Turning to `C[C@H](Oc1cc(-c2nn(C)c3c(-c4cnn(C5CN(C)C5)c4)cnc(N)c23)ccc1NS(=O)(=O)C(F)F)c1ccc(F)cc1` [Compound 92, (S)-N-(4-(4-amino-1-methyl-7-(1-(1-methylazetidin-3-yl)-1H-pyrazol-4-yl)-1H-pyrazolo[4,3-c]pyridin-3-yl)-2-(1-(4-fluorophenyl)ethoxy)phenyl)-1,1-difluoromethanesulfonamide], the values for the Kd on human MLKL (full length), on human RIPK1 and at human RIPK3 were under 0.001 µM, over 10 µM and over 10 µM, respectively.

Take `C[C@H](Oc1cc(-c2nn(C)c3c(-c4cnn(C5C[C@H]6CNC[C@H]6C5)c4)cnc(N)c23)ccc1NS(=O)(=O)C(F)F)c1ccc(F)cc1` (stereo partly drawn) [Compound 163, N-(4-(4-amino-1-methyl-7-(1-((3aR,6aS)-octahydrocyclo-penta[c]pyrrol-5-yl)-1H-pyrazol-4-yl)-1H-pyrazolo[4,3-c]pyridin-3-yl)-2-((S)-1-(4-fluoropohenyl)eth-oxy)phenyl)-1,1-difluoromethane-sulfonamide]: the dissociation constant (Kd) was under 0.001 µM on human MLKL (full length), over 10 µM at human RIPK1 and over 10 µM at human RIPK3.

Take `C[C@H](Oc1cc(-c2nn(C)c3c(-c4cnn(C5CC6(CNC6)C5)c4)cnc(N)c23)ccc1NS(=O)(=O)C(F)F)c1ccc(F)cc1` [Compound 78, (S)-N-(4-(7-(1-(2-azaspiro[3.3]heptan-6-yl)-1H-pyrazol-4-yl)-4-amino-1-methyl-1H-pyrazolo[4,3-c]pyridin-3-yl)-2-(1-(4-fluorophenyl)ethoxy)phenyl)-1,1-difluoromethane-sulfonamide]: the dissociation constant (Kd) is under 0.001 µM on human MLKL (full length), over 10 µM at human RIPK1 and over 10 µM at human RIPK3.

For `C[C@H](Oc1cc(-c2nn(C)c3c(-c4cnc(N5CCOCC5)nc4)cnc(N)c23)ccc1NS(=O)(=O)C(F)F)c1ccc(F)cc1` [Compound 110, (S)-N-(4-(4-amino-1-methyl-7-(2-morpholinopyrimidin-5-yl)-1H-pyrazolo[4,3-c]pyridin-3-yl)-2-(1-(4-fluorophenyl)ethoxy)phenyl)-1,1-difluoromethanesulfonamide], the Kd at human MLKL (full length) is under 0.001 µM; on human RIPK1, over 10 µM; at human RIPK3, over 10 µM.

For the molecule `CC(n1cc(-c2cnc(N)c3c(-c4ccc(NS(=O)(=O)C(F)F)c(O[C@@H](C)c5ccc(F)cc5)c4)nn(C)c23)cn1)C(F)(F)F` (stereo partly drawn) [Compound 142, N-(4-(4-amino-1-methyl-7-(1-(1,1,1-trifluoropropan-2-yl)-1H-pyrazol-4-yl)-1H-pyrazolo[4,3-c]pyridin-3-yl)-2-((S)-1-(4-fluorophenyl)ethoxy)phenyl)-1,1-difluoromethanesulfonamide], the figures for the dissociation constant (Kd) on human MLKL (full length), at human RIPK1 and on human RIPK3 were under 0.001 µM, over 10 µM and over 10 µM, respectively.

Consider `C[C@H](Oc1cc(-c2cnn3c(-c4cnn(C)c4)cnc(N)c23)ccc1NS(=O)(=O)C(F)F)c1ccc(F)cc1` [Compound 35, (S)-N-(4-(4-amino-7-(1-methyl-1H-pyrazol-4-yl)pyrazolo[1,5-a]pyrazin-3-yl)-2-(1-(4-fluorophenyl)ethoxy)phenyl)-1,1-difluoromethane-sulfonamide], for which the Kd on human MLKL (full length) was under 0.001 µM; at human RIPK1, over 10 µM; on human RIPK3, over 10 µM.

With `Cn1nc(-c2ccc(NS(=O)(=O)C(F)F)c(OCc3ncco3)c2)c2c(N)ncc(-c3cnn(C4CCOCC4)c3)c21` [Compound 151, N-(4-(4-amino-1-methyl-7-(1-(tetrahydro-2H-pyran-4-yl)-1H-pyrazol-4-yl)-1H-pyrazolo[4,3-c]pyridin-3-yl)-2-(oxazol-2-yl-methoxy)phenyl)-1,1-difluoromethane-sulfonamide], the Kd on human MLKL (full length) is under 0.001 µM; at human RIPK1 it was over 10 µM; on human RIPK3 it was over 10 µM.

On to `Nc1ncc(-c2cnn(CCO)c2)c2occ(-c3ccc(NS(=O)(=O)C(F)F)c(OCc4ccc(F)cc4)c3)c12` [Compound 6, N-(4-(4-amino-7-(1-(2-hydroxyethyl)-1H-pyrazol-4-yl)furo[3,2-c]pyridin-3-yl)-2-((4-fluorobenzyl)oxy)phenyl)-1,1-difluoro-methanesulfonamide], for which the results for the Kd on human MLKL (full length), at human RIPK1 and on human RIPK3 were under 0.001 µM, over 10 µM and over 10 µM, respectively.

On to `C[C@H](Oc1cc(-c2nn(C)c3c(-c4ccc5c(c4)n(C)c(=O)n5C)cnc(N)c23)ccc1NS(=O)(=O)C(F)F)c1ccc(F)cc1` [Compound 161, (S)-N-(4-(4-amino-7-(1,3-dimethyl-2-oxo-2,3-dihydro-1H-benzo[d]imidazol-5-yl)-1-methyl-1H-pyrazolo[4,3-c]pyridin-3-yl)-2-(1-(4-fluorophenyl)ethoxy)phenyl)-1,1-difluoromethanesulfonamide], for which the Kd at human MLKL (full length) was under 0.001 µM; at human RIPK1, over 10 µM; at human RIPK3 it was over 10 µM.

`C[C@H](Oc1cc(-c2cnn3c(-c4cnn(CCO)c4)cnc(N)c23)ccc1NS(=O)(=O)C(F)F)c1ccc(F)cc1` [Compound 37, (S)-N-(4-(4-amino-7-(1-(2-hydroxyethyl)-1H-pyrazol-4-yl)pyrazolo[1,5-a]pyrazin-3-yl)-2-(1-(4-fluorophenyl)ethoxy)phenyl)-1,1-difluoromethane-sulfonamide]: the equilibrium dissociation constant (Kd) on human MLKL (full length) is under 0.001 µM; at human RIPK1, over 10 µM; on human RIPK3 it was over 10 µM.

Turning to `C[C@H](Oc1cc(-c2nn(C)c3c(-c4cnn(C5CCNCC5)c4)cnc(N)c23)ccc1NS(=O)(=O)C(F)F)c1ccc(F)cc1` [Compound 59, N-(4-{4-amino-1-methyl-7-[1-(piperidin-4-yl)-1H-pyrazol-4-yl]-1H-pyrazolo[4,3-c]pyridin-3-yl}-2-[(1 S)-1-(4-fluorophenyl)ethoxy]phenyl)-1,1-difluoromethanesulfonamide], the Kd was under 0.001 µM at human MLKL (full length), over 10 µM on human RIPK1 and over 10 µM on human RIPK3.

As to `CC#Cc1cnc(N)c2c(-c3ccc(NS(=O)(=O)C(F)F)c(O[C@@H](C)c4ccc(F)cc4)c3)nn(C)c12` [Compound 56, (S)-N-(4-(4-amino-1-methyl-7-(prop-1-yn-1-yl)-1H-pyrazolo[4,3-c]pyridin-3-yl)-2-(1-(4-fluorophenyl)ethoxy)phenyl)-1,1-difluoromethane-sulfonamide], the equilibrium dissociation constant (Kd) is under 0.001 µM on human MLKL (full length), over 10 µM at human RIPK1 and over 10 µM on human RIPK3.

Take `CC(C)N(C)CC(C)n1cc(-c2cnc(N)c3c(-c4ccc(NS(=O)(=O)C(F)F)c(O[C@@H](C)c5ccc(F)cc5)c4)nn(C)c23)cn1` (stereo partly drawn) [Compound 101, N-(4-(4-amino-7-(1-(1-(isopropyl(methyl)amino)propan-2-yl)-1H-pyrazol-4-yl)-1-methyl-1H-pyrazolo[4,3-c]pyridin-3-yl)-2-((S)-1-(4-fluorophenyl)ethoxy)phenyl)-1,1-difluoromethanesulfonamide]: the dissociation constant Kd on human MLKL (full length) was under 0.001 µM; at human RIPK1, over 10 µM; at human RIPK3, over 10 µM.

In the case of `C[C@H](Oc1cc(-c2nn(C)c3c(-c4cnn(C(F)F)c4)cnc(N)c23)ccc1NS(=O)(=O)C(F)F)c1ccc(F)cc1` [Compound 123, (S)-N-(4-(4-amino-7-(1-(difluoromethyl)-1H-pyrazol-4-yl)-1-methyl-1H-pyrazolo[4,3-c]pyridin-3-yl)-2-(1-(4-fluorophenyl)ethoxy)phenyl)-1,1-difluoromethanesulfonamide], the results for the dissociation constant (Kd) at human MLKL (full length), at human RIPK1 and at human RIPK3 were under 0.001 µM, over 10 µM and over 10 µM, respectively.

`COc1ccc(-c2cnc(N)c3c(-c4ccc(NS(=O)(=O)C(F)F)c(O[C@@H](C)c5ccc(F)cc5)c4)nn(C)c23)cn1` [Compound 28, (S)-N-(4-(4-amino-7-(6-methoxypyridin-3-yl)-1-methyl-1H-pyrazolo[4,3-c]pyridin-3-yl)-2-(1-(4-fluorophenyl)ethoxy)phenyl)-1,1-difluoromethanesulfonamide]: the Kd at human MLKL (full length) was under 0.001 µM; at human RIPK1 it was over 10 µM; on human RIPK3 it was over 10 µM.

For `CC(C)N1CC(n2cc(-c3cnc(N)c4c(-c5ccc(NS(=O)(=O)C(F)F)c(O[C@@H](C)c6ccc(F)cc6)c5)nn(C)c34)cn2)C1` [Compound 76, (S)-N-(4-(4-amino-7-(1-(1-isopropylazetidin-3-yl)-1H-pyrazol-4-yl)-1-methyl-1H-pyrazolo[4,3-c]pyridin-3-yl)-2-(1-(4-fluorophenyl)ethoxy)phenyl)-1,1-difluoromethanesulfonamide], the equilibrium dissociation constant (Kd) on human MLKL (full length) was under 0.001 µM; on human RIPK1 it was over 10 µM; on human RIPK3, over 10 µM.

In the case of `Cn1nc(-c2ccc(NS(=O)(=O)C(F)F)c(OCc3nccs3)c2)c2c(N)ncc(-c3cnn(C4CCOCC4)c3)c21` [Compound 143, N-(4-(4-amino-1-methyl-7-(1-(tetrahydro-2H-pyran-4-yl)-1H-pyrazol-4-yl)-1H-pyrazolo[4,3-c]pyridin-3-yl)-2-(thiazol-2-yl-methoxy)phenyl)-1,1-difluoromethane-sulfonamide], the dissociation constant (Kd) at human MLKL (full length) is under 0.001 µM; at human RIPK1, over 10 µM; at human RIPK3, over 10 µM.
